# The supplement of paper PMC10307832
# Columns and labels:
# Assay in all cases: relative viability (nuclei count vs DMSO), 5 days (fraction); higher = more cells survive
# [1] = compound: C1COCCN1C2=NC(=NC3=C2OC4=C3C=CC=N4)C5=CC(=CC=C5)NC(=O)C6=CN=C(C=C6)N + CS(=O)(=O)CCNCc1ccc(-c2ccc3ncnc(Nc4ccc(OCc5cccc(F)c5)c(Cl)c4)c3c2)o1 [Lapatinib] (partner 2 µM)
# Outline: (§1)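 Relative viability is defined as nuclei in treated wells over nuclei in vehicle wells. Duplicate plates were run and medians reported. Lung cancer cell lines in 1536-well plates were dosed by pin tool one day after seeding, with one drug or with a fixed anchor-drug dose plus five library-drug doses (not always all listed) in √10 steps, and nuclei were counted after 5 days.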
# [2] = compound: CN1CCC(CNc2ccc3ncc(-c4cccc(OC(F)(F)F)c4)n3n2)CC1 [SGI-1776] + CS(=O)(=O)CCNCc1ccc(-c2ccc3ncnc(Nc4ccc(OCc5cccc(F)c5)c(Cl)c4)c3c2)o1 [Lapatinib] (partner 2 µM)
# Outline: as §1
# [3] = compound: CN1CCC(CNc2ccc3ncc(-c4cccc(OC(F)(F)F)c4)n3n2)CC1 [SGI-1776] + CC(=O)Nc1cccc(-n2c(=O)n(C3CC3)c(=O)c3c(Nc4ccc(I)cc4F)n(C)c(=O)c(C)c32)c1 [Trametinib] (partner 0.02 µM)
# Outline: as §1
# [4] = compound: CN1CCC(CNc2ccc3ncc(-c4cccc(OC(F)(F)F)c4)n3n2)CC1 [SGI-1776] + Cc1nc(Nc2ncc(C(=O)Nc3c(C)cccc3Cl)s2)cc(N2CCN(CCO)CC2)n1 [Dasatinib] (partner 0.075 µM)
# Outline: as §1
Cell Line,relative viability ([1]; first compound 0.02 µM),relative viability ([1]; first compound 0.06325 µM),relative viability ([1]; first compound 0.2 µM),relative viability ([1]; first compound 0.6325 µM),relative viability ([1]; first compound 2 µM),relative viability ([2]; first compound 0.08 µM),relative viability ([2]; first compound 0.8 µM),relative viability ([2]; first compound 2.53 µM),relative viability ([2]; first compound 8 µM),relative viability ([3]; first compound 0.08 µM),relative viability ([3]; first compound 0.8 µM),relative viability ([3]; first compound 2.53 µM),relative viability ([3]; first compound 8 µM),relative viability ([4]; first compound 0.08 µM),relative viability ([4]; first compound 0.8 µM),relative viability ([4]; first compound 2.53 µM),relative viability ([4]; first compound 8 µM)
Calu-6,1.3,1.1,1.12,0.98,0.742,1.12,1.11,1.01,0.771,,,,,,,,
SK-LU-1,1.02,1.01,0.786,0.824,0.33,0.861,1.03,0.782,0.667,0.557,0.541,0.533,0.408,0.171,0.183,0.169,0.116
LCLC-97TM1,,1.25,1.15,0.892,0.761,1,0.79,1.14,0.95,0.216,0.205,0.195,0.199,0.783,0.938,0.85,0.949
HCC-15,0.865,0.883,0.811,0.818,0.511,0.821,0.882,0.933,0.786,0.262,0.376,0.332,0.338,0.577,0.551,0.466,0.382
H3255,0.241,0.238,0.23,0.238,0.293,0.285,0.33,0.259,0.198,0.633,0.582,0.577,0.559,0.4,0.371,0.378,0.277
NCI-H1915,0.955,1.04,1.03,1.01,0.443,0.981,0.95,0.972,0.949,0.317,0.281,0.309,0.277,0.315,0.273,0.29,0.261
NCI-H1650,0.791,0.792,0.7,0.775,0.613,0.877,0.983,0.809,0.343,0.543,0.521,0.504,0.371,0.372,0.292,0.208,0.171
NCI-H647,1.11,1.22,0.965,0.868,0.275,1.17,0.915,1.01,0.601,0.621,0.441,0.56,0.323,0.188,0.184,0.111,0.117
NCI-H2126,0.729,0.754,0.722,0.776,0.67,0.72,0.742,0.772,0.71,0.585,0.572,0.293,0.472,0.642,0.635,0.481,0.434
NCI-H727,0.829,0.753,0.742,0.722,0.686,0.933,1.1,0.826,0.793,0.454,0.38,0.391,0.372,0.4,0.426,0.351,0.356
NCI-H522,,,,,,,,,,0.81,0.789,0.723,0.798,0.828,0.849,0.843,0.729
EMC-BAC-2,0.932,0.931,0.94,0.897,0.733,0.912,0.902,0.836,0.849,0.992,0.966,0.853,0.879,0.361,0.284,0.314,0.288
NCI-H1437,0.801,0.952,0.746,0.794,0.327,0.81,0.918,0.806,0.664,0.565,0.524,0.361,0.301,0.335,0.427,0.298,0.242
NCI-H2347,0.993,0.787,0.929,0.944,0.933,1.13,0.965,0.948,0.869,0.323,0.278,0.3,0.277,0.346,0.319,0.306,0.265
NCI-H1666,0.708,0.598,0.56,0.648,0.434,0.645,0.765,0.581,0.35,0.95,0.846,0.935,0.842,0.822,0.791,0.75,0.711
HCC-44,1.1,1.07,1.09,1.06,0.631,1.04,1.15,1.01,0.962,1.04,1.05,0.988,1.09,,,,
ChaGo-K-1,,,,,,,,,,0.878,0.865,0.874,0.909,0.652,0.647,0.561,0.416
NCI-H1648,,,,,,,,,,0.397,0.441,0.415,0.398,,,,
LCLC-103H,,,,,,,,,,0.658,0.689,0.633,0.642,0.527,0.479,0.535,0.432
NCI-H1703,1.17,1.21,0.761,0.798,0.308,1.3,0.922,0.608,0.257,,,,,,,,
EBC-1,0.178,0.212,0.216,0.17,0.268,0.207,0.214,0.182,0.138,,,,,,,,
NCI-H1563,0.906,0.82,0.857,0.72,0.719,0.869,0.939,1.02,0.825,,,,,0.446,0.474,0.457,0.453
ABC-1,1.38,1.14,1.07,1.21,0.871,1.36,1.16,1.28,1.1,,,,,0.502,0.613,0.508,0.465
